Reference: paper PMC8609006, “Design of modular autoproteolytic gene switches responsive to anti-coronavirus drug candidates” (Nature Communications, 2021)

Biological target: T1, SARS-CoV-2 Mpro (Mpro(S2), 3CLpro) (Severe acute respiratory syndrome coronavirus 2, UniProt P0DTD1)
T1 construct: gene rep; mature Mpro (nsp5) cut from polyprotein pp1a/pp1ab, human codon-optimized, fused N-terminally to TetR-MproCSOPT-VP64 (pNF167), expressed in HEK293T; TAGS plasmids OK425851-OK425853 (not assigned singly)
Assay type: cell-based

CC(C)(C)NC(=O)N[C@H](C(=O)N1C[C@H]2[C@@H]([C@H]1C(=O)NC(CC1CCC1)C(=O)C(N)=O)C2(C)C)C(C)(C)C (stereo partly shown) [Boceprevir]
Mpro-TAGS nanoLuc gain-of-signal reporter in HEK293T cells, 24 h: GRL-0496 and Boceprevir only slightly induced gene expression
